Data taken from US20240376097A1, “BCL-2 Inhibitor” (BeiGene Ltd., priority 2020, published 2024).
Where two headings read alike, the source gives them in different places.

What was measured:
[1] = biological target: Recombinant human Bcl-2 protein (Homo sapiens (Human), UniProt P10415); experiment: Bcl-2 TR-FRET Assay; assay type: binding
How it was run: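 In pH 7.5 phosphate buffer containing NaCl, EDTA, Tween-20 and BSA, 0.05 nM Bcl-2 saw serially diluted compound for 0.5 h before 0.5 nM FITC-Bak peptide was added. Signal ratio at 520/490 nm after 1 h yielded IC50.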

[2] = biological target: recombinant human Bcl-2-G101V protein (Homo sapiens (Human), UniProt P10415, G101V); experiment: Bcl-2-G101V TR-FRET Assay; assay type: binding; settings: Bcl-2 G101V mutant, TR-FRET; read-out: Biochemical assay (IC50, nM) Bcl-2 G101V
How it was run: (§1)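 Percent inhibition of the Bcl-2-G101V–ligand interaction was computed from the 490 nm to 520 nm emission ratio after 337 nm excitation, over increasing compound concentrations; a four-parameter logistic fit gave IC50.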

[3] = test system: recombinant human Bcl-2-G101V protein; experiment: Bcl-2-G101V TR-FRET Assay; assay type: binding; settings: for Ratio of Bcl-2 G101V/WT: ratio of biochemical IC50 Bcl-2 G101V / Bcl-2 WT
How it was run: as §1

[4] = test system: RS4;11 (BCL-2 dependent acute lymphoblastic leukemia cell line); experiment: RS4;11 Cell Proliferation Assay; assay type: cell-based; settings: Homo sapiens, RS4-11, RS4;11 cells, read-out: Cellular proliferation assay (IC50, nM) RS4
How it was run: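 Viability measured via CellTiter-Glo luminescence after a 48 h, 37 °C exposure to compounds (10 points, highest 1 μM). Seeding was 50,000 RS4;11 cells per well in 10% FBS RPMI-1640; IC50 given as mean.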

[5] = test system: BCL-2 G101V knock-in cell line H96 (derive from RS4;11); experiment: Bcl 2-G101V Knock-In RS4;11 Cell Proliferation Assay; assay type: cell-based; settings: Homo sapiens, RS4;11 Bcl-2 G101V knock-in clone H96, 48 hrs, CellTiter-GLO, read-out: Cellular proliferation assay (IC50, nM) RS4
How it was run: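 CellTiter-Glo luminescence after 48 h, 37 °C compound treatment (10 concentrations, maximum 1 μM or 10 μM) gave mean IC50 values. Cells were 50,000 per well of H96, a BCL2-G101V knock-in single clone derived from RS4;11 by Cas9 editing.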

[6] = biological target: recombinant human Bcl-2 D103Y protein (Homo sapiens (Human), UniProt P10415, D103Y); experiment: Bcl-2-D103Y Biochemical Assay (TR-FRET); assay type: binding; settings: for IC50: TR-FRET, FITC labeled Bak peptide; for Ratio of Bcl-2 D103Y/Bcl-2 WT: ratio of IC50
How it was run: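 Compounds titrated against the Bcl-2 D103Y–ligand interaction; inhibition derived from the TR-FRET emission ratio 490 nm/520 nm after 337 nm excitation. Four-parameter logistic fitting gave IC50.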

[7] = Bcl-2 wild type, TR-FRET, read-out: Biochemical assay (IC50, nM) Bcl-2 WT
[8] = wild type Bcl-2, unit inferred, read-out: Bcl-2 WT

Compound	IC50 [1, 7] [nM]	IC50 [1, 8] [nM]	IC50 [2] [nM]	Ratio of Bcl-2 G101V/WT [3]	IC50 [4] [nM]	IC50 [5] [nM]	IC50 [6] [nM]	Ratio of Bcl-2 D103Y/Bcl-2 WT [6]	ratio of IC50 of Bcl-2 G101V/Bcl-2 wt, compared with Example F132b in WO2019210828 and ABT-199 (venetoclax) ([3]; comparison in words)	ratio of Bcl-2 D103Y/Bcl-2 wt, compared with F91b in WO2019210828 ([6]; comparison in words)
COc1cc(CN2CCN(C3CC4(C3)CN(c3ccc(C(=O)NS(=O)(=O)c5ccc(NC[C@H]6CC[C@](C)(O)CC6)c([N+](=O)[O-])c5)c(Oc5cnc6[nH]ccc6c5)c3)C4)[C@H](c3ccccc3C(C)C)C2)cc2cc(C)oc12 [Example 339, 2-((1H-pyrrolo[2,3-b]pyridin-5-yl)oxy)-N-((4-((((1r,4r)-4-hydroxy-4-methylcyclohexyl)methyl)amino)-3-nitrophenyl)sulfonyl)-4-(6-((R)-2-(2-isopropylphenyl)-4-((7-methoxy-2-methylbenzofuran-5-yl)methyl)piperazin-1-yl)-2-azaspiro[3.3]heptan-2-yl) benzamide]	0.28	0.28	0.97	3.5	0.19	0.52	0.71	2.5		
COc1cc(CN2CCN(C3CC4(C3)CN(c3ccc(C(=O)NS(=O)(=O)c5ccc(NC[C@H]6CC[C@](C)(O)CC6)c([N+](=O)[O-])c5)c(Oc5cnc6[nH]cc(F)c6c5)c3)C4)[C@H](c3ccccc3C(C)C)C2)ccc1C1CCOCC1 [Example 367]	0.35		0.9	2.6	0.11	0.3	0.4	1.2		
COc1cc(CN2CCN(C3CC4(CCN(c5ccc(C(=O)NS(=O)(=O)c6ccc(NC[C@H]7CC[C@](C)(O)CC7)c([N+](=O)[O-])c6)c(Oc6cnc7[nH]ccc7c6)c5)CC4)C3)[C@H](c3ccccc3C(C)C)C2)cc2c1OCC2 [Example 239, 2-((1H-pyrrolo[2,3-b]pyridin-5-yl)oxy)-N-((4-((((1r,4r)-4-hydroxy-4-methylcyclohexyl)methyl)amino)-3-nitrophenyl)sulfonyl)-4-(2-((R)-2-(2-isopropylphenyl)-4-((7-methoxy-2,3-dihydrobenzofuran-5-yl)methyl)piperazin-1-yl)-7-azaspiro[3.5]nonan-7-yl)benzamide]	0.076	0.076	0.2	2.6	0.12	0.29	0.12	1.5		
CC(C)c1ccccc1C1CN(Cc2ccccc2)CCN1C1CC2(CCN(c3ccc(C(=O)NS(=O)(=O)c4ccc(NC[C@H]5CC[C@](C)(O)CC5)c([N+](=O)[O-])c4)c(Oc4cnc5[nH]ccc5c4)c3)CC2)C1 (stereo partly shown) [Example 23, 2-((1H-pyrrolo[2,3-b]pyridin-5-yl)oxy)-4-(2-(4-benzyl-2-(2-isopropylphenyl)piperazin-1-yl)-7-azaspiro[3.5]nonan-7-yl)-N-((4-((((1r,4r)-4-hydroxy-4-methylcyclohexyl)methyl)amino)-3-nitrophenyl)sulfonyl)benzamide]	0.45	0.13	2.1	4.7	0.39	2.66	0.26	2	much lower	significantly lower
CC(C)c1ccccc1[C@@H]1CN(Cc2ccc3c(c2)OCCC3)CCN1C1CC2(CCN(c3ccc(C(=O)NS(=O)(=O)c4ccc(NC[C@H]5CC[C@](C)(O)CC5)c([N+](=O)[O-])c4)c(Oc4cnc5[nH]ccc5c4)c3)CC2)C1 [Example 282]	0.25	0.25	0.97	3.9	0.36	4.2	0.47	1.9		
CC(C)c1ccccc1[C@@H]1CN(Cc2ccc(OC3CC3)cc2)CCN1C1CC2(C1)CN(c1ccc(C(=O)NS(=O)(=O)c3ccc(NC[C@H]4CC[C@](C)(O)CC4)c([N+](=O)[O-])c3)c(Oc3cnc4[nH]cc(F)c4c3)c1)C2 [Example 365]	0.46		1.3	2.9	0.12	0.26	0.51	1.1		
COc1cc(CN2CCN(C3CC4(C3)CN(c3ccc(C(=O)NS(=O)(=O)c5ccc(NC[C@H]6CC[C@](C)(O)CC6)c([N+](=O)[O-])c5)c(Oc5cnc6[nH]cc(F)c6c5)c3)C4)[C@H](c3ccccc3C(C)C)C2)cc2c1OC(C)(C)CC2 [Example 337, 2-((3-fluoro-1H-pyrrolo[2,3-b]pyridin-5-yl)oxy)-N-((4-((((1r,4r)-4-hydroxy-4-methylcyclohexyl)methyl)amino)-3-nitrophenyl)sulfonyl)-4-(6-((R)-2-(2-isopropylphenyl)-4-((8-methoxy-2,2-dimethylchroman-6-yl)methyl)piperazin-1-yl)-2-azaspiro[3.3]heptan-2-yl)benzamide]	0.12	0.12	0.37	3	0.18	0.63	0.39	3.2		
CC(C)c1ccccc1C1CN(Cc2ccc(F)cc2F)CCN1C1CC2(CCN(c3ccc(C(=O)NS(=O)(=O)c4ccc(NC[C@H]5CC[C@](C)(O)CC5)c([N+](=O)[O-])c4)c(Oc4cnc5[nH]ccc5c4)c3)CC2)C1 (stereo partly shown) [Example 50]	0.18	0.18	1.2	6.7	0.8	7.9	1.2	6.6		
COc1cc(CN2CCN(C3CC4(CCN(c5ccc(C(=O)NS(=O)(=O)c6ccc(NC[C@H]7CC[C@](C)(O)CC7)c([N+](=O)[O-])c6)c(Oc6cnc7[nH]ccc7c6)c5)CC4)C3)[C@H](c3ccccc3C(C)C)C2)ccc1C(F)F [Example 288, 2-((1H-pyrrolo[2,3-b]pyridin-5-yl)oxy)-4-(2-((R)-4-(4-(difluoromethyl)-3-methoxybenzyl)-2-(2-isopropylphenyl)piperazin-1-yl)-7-azaspiro[3.5]nonan-7-yl)-N-((4-((((1r,4r)-4-hydroxy-4-methylcyclohexyl)methyl)amino)-3-nitrophenyl)sulfonyl)benzamide]	0.52	0.52	1.3	2.5	0.19	0.87	0.43	0.84		
COc1ccc(CN2CCN(C3CC4(CCN(c5ccc(C(=O)NS(=O)(=O)c6ccc(NC[C@H]7CC[C@](C)(O)CC7)c([N+](=O)[O-])c6)c(Oc6cnc7[nH]ccc7c6)c5)CC4)C3)C(c3ccccc3C(C)C)C2)c2c1OCCO2 (stereo partly shown) [Example 203, 2-((1H-pyrrolo[2,3-b]pyridin-5-yl)oxy)-N-((4-((((1r,4r)-4-hydroxy-4-methylcyclohexyl)methyl)amino)-3-nitrophenyl)sulfonyl)-4-(2-(2-(2-isopropylphenyl)-4-((8-methoxy-2,3-dihydrobenzo[b][1,4]dioxin-5-yl)methyl)piperazin-1-yl)-7-azaspiro[3.5]nonan-7-yl) benzamide]	0.052	0.052	0.17	3.2	0.38	0.9	0.083	1.6		
COc1ccc(CN2CCN(C3CC4(CCN(c5ccc(C(=O)NS(=O)(=O)c6ccc(NC[C@H]7CC[C@](C)(O)CC7)c([N+](=O)[O-])c6)c(Oc6cnc7[nH]ccc7c6)c5)CC4)C3)C(c3ccccc3C(C)C)C2)cc1F (stereo partly shown) [Example 134, 2-((1H-pyrrolo[2,3-b]pyridin-5-yl)oxy)-4-(2-(4-(3-fluoro-4-methoxybenzyl)-2-(2-isopropylphenyl)piperazin-1-yl)-7-azaspiro[3.5]nonan-7-yl)-N-((4-((((1r,4r)-4-hydroxy-4-methylcyclohexyl)methyl)amino)-3-nitrophenyl)sulfonyl)benzamide]	0.35	0.35	1.3	3.8	0.4	3.1	0.67	1.9		
